For assay [1], the target named is T1, Glucagon receptor (Homo sapiens, UniProt P47871). Kind of assay: Partial antagonist activity at human GCGR expressed in HEK293 cells assessed as inhibition of glucogon-induced cAMP production. The class given is functional, cell-based. Particulars: filed as antagonist. (Changes in cAMP serve as a functional read-out for many G protein-coupled receptors.)
For assay [2], the target named is T1, Glucagon receptor. Put plainly: Antagonist activity at human GCGR expressed in HEK293 cells assessed as inhibition of glucogon-induced cAMP production. The class given is functional, cell-based.
In assay [3] the target is T1, Glucagon receptor. Put plainly: Displacement of 125I-glucagon from human GCGR expressed in HEK293 cells membranes incubated for 6 hrs by liquid scintillation counting method. Format: cell membranes, Membrane. A general note: Displacement assays read how much labelled ligand stays bound in the presence of the test substance.

The source made the active and inactive calls. The calls are words filed in the database; no cut-off is given here. Peptide text beside a SMILES is read from it. * marks the point of attachment. Carboxymethyl = O=C(O)C*; CH2CH2COOH = O=C(O)CC*

T1 sequence (P47871 whole entry): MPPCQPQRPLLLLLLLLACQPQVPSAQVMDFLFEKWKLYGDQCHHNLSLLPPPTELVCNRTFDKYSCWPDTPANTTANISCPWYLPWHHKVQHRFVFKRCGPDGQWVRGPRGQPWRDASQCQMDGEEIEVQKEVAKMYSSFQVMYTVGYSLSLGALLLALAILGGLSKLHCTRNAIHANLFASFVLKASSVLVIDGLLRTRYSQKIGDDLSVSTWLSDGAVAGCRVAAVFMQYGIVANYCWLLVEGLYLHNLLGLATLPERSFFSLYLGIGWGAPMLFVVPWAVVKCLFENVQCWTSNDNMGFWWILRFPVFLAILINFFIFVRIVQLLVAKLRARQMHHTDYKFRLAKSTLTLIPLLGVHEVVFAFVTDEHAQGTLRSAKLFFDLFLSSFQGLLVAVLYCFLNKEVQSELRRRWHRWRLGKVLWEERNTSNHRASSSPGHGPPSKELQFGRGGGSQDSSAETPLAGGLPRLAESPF

Consider `CSCC[C@H](NC(=O)[C@H](CC(C)C)NC(=O)[C@H](Cc1c[nH]c2ccccc12)NC(=O)[C@H](CCC(N)=O)NC(=O)[C@@H](NC(=O)[C@H](Cc1ccccc1)NC(=O)[C@H](CC(=O)O)NC(=O)[C@H](CCC(N)=O)NC(=O)[C@H](C)NC(=O)[C@H](CCCNC(=N)N)NC(=O)[C@H](CCCNC(=N)N)NC(=O)[C@H](CO)NC(=O)[C@H](CC(=O)O)NC(=O)[C@H](CC(C)C)NC(=O)[C@H](Cc1ccc(O)cc1)NC(=O)[C@H](CCCCN)NC(=O)[C@H](CO)NC(=O)[C@H](Cc1ccc(O)cc1)NC(=O)CN(CCC(=O)O)C(=O)[C@H](CO)NC(=O)[C@@H](NC(=O)[C@H](Cc1ccccc1)NC(=O)[C@@H](NC(=O)CNC(=O)[C@H](CCC(N)=O)NC(=O)[C@@H](N)CO)[C@@H](C)O)[C@@H](C)O)C(C)C)C(=O)N[C@@H](CC(N)=O)C(=O)N[C@H](C(N)=O)[C@@H](C)O`, for which the result on Glucagon receptor [1] was Active.

`CSCC[C@H](NC(=O)[C@H](CC(C)C)NC(=O)[C@H](Cc1c[nH]c2ccccc12)NC(=O)[C@H](CCC(N)=O)NC(=O)[C@@H](NC(=O)[C@H](Cc1ccccc1)NC(=O)[C@H](CC(=O)O)NC(=O)[C@H](CCC(N)=O)NC(=O)[C@H](C)NC(=O)[C@H](CCCNC(=N)N)NC(=O)[C@H](CCCNC(=N)N)NC(=O)[C@H](CO)NC(=O)[C@H](CC(=O)O)NC(=O)[C@H](CC(C)C)NC(=O)[C@H](Cc1ccc(O)cc1)NC(=O)[C@H](CCCCN)NC(=O)[C@H](CO)NC(=O)[C@H](Cc1ccc(O)cc1)NC(=O)CN(CCCC(=O)O)C(=O)[C@H](CO)NC(=O)[C@@H](NC(=O)[C@H](Cc1ccccc1)NC(=O)[C@@H](NC(=O)CNC(=O)[C@H](CCC(N)=O)NC(=O)[C@@H](N)CO)[C@@H](C)O)[C@@H](C)O)C(C)C)C(=O)N[C@@H](CC(N)=O)C(=O)N[C@H](C(N)=O)[C@@H](C)O`: at Glucagon receptor [1], the result was Active.

In the case of `CSCC[C@H](NC(=O)[C@H](CC(C)C)NC(=O)[C@H](Cc1c[nH]c2ccccc12)NC(=O)[C@H](CCC(N)=O)NC(=O)[C@@H](NC(=O)[C@H](Cc1ccccc1)NC(=O)[C@H](CC(=O)O)NC(=O)[C@H](CCC(N)=O)NC(=O)[C@H](C)NC(=O)[C@H](CCCNC(=N)N)NC(=O)[C@H](CCCNC(=N)N)NC(=O)[C@H](CO)NC(=O)[C@H](CC(=O)O)NC(=O)[C@H](CC(C)C)NC(=O)[C@H](Cc1ccc(O)cc1)NC(=O)[C@H](CCCCN)NC(=O)[C@H](CO)NC(=O)[C@H](Cc1ccc(O)cc1)NC(=O)C[C@H](CCC(=O)O)NC(=O)[C@H](CO)NC(=O)[C@@H](NC(=O)[C@H](Cc1ccccc1)NC(=O)[C@@H](NC(=O)CNC(=O)[C@H](CCC(N)=O)NC(=O)[C@@H](N)CO)[C@@H](C)O)[C@@H](C)O)C(C)C)C(=O)N[C@@H](CC(N)=O)C(=O)N[C@H](C(N)=O)[C@@H](C)O`, the result on Glucagon receptor [1] was Active.

As for `CSCC[C@H](NC(=O)[C@H](CC(C)C)NC(=O)[C@H](Cc1c[nH]c2ccccc12)NC(=O)[C@H](CCC(N)=O)NC(=O)[C@@H](NC(=O)[C@H](Cc1ccccc1)NC(=O)[C@H](CC(=O)O)NC(=O)[C@H](CCC(N)=O)NC(=O)[C@H](C)NC(=O)[C@H](CCCNC(=N)N)NC(=O)[C@H](CCCNC(=N)N)NC(=O)[C@H](CO)NC(=O)[C@H](CC(=O)O)NC(=O)[C@H](CC(C)C)NC(=O)[C@H](Cc1ccc(O)cc1)NC(=O)[C@H](CCCCN)NC(=O)[C@H](CO)NC(=O)[C@H](Cc1ccc(O)cc1)NC(=O)[C@H](CCCC(=O)O)NC(=O)[C@H](CO)NC(=O)[C@@H](NC(=O)[C@H](Cc1ccccc1)NC(=O)[C@@H](NC(=O)CNC(=O)[C@H](CCC(N)=O)NC(=O)[C@@H](N)CO)[C@@H](C)O)[C@@H](C)O)C(C)C)C(=O)N[C@@H](CC(N)=O)C(=O)N[C@H](C(N)=O)[C@@H](C)O`, the outcome at Glucagon receptor [1] was Active.

Regarding `CSCC[C@H](NC(=O)[C@H](CC(C)C)NC(=O)[C@H](Cc1c[nH]c2ccccc12)NC(=O)[C@H](CCC(N)=O)NC(=O)[C@@H](NC(=O)[C@H](Cc1ccccc1)NC(=O)[C@H](CC(=O)O)NC(=O)[C@H](CCC(N)=O)NC(=O)[C@H](C)NC(=O)[C@H](CCCNC(=N)N)NC(=O)[C@H](CCCNC(=N)N)NC(=O)[C@H](CO)NC(=O)[C@H](CC(=O)O)NC(=O)[C@H](CC(C)C)NC(=O)[C@H](Cc1ccc(O)cc1)NC(=O)[C@H](CCCCN)NC(=O)[C@H](CO)NC(=O)[C@H](Cc1ccc(O)cc1)NC(=O)[C@H](CSCC(=O)O)NC(=O)[C@H](CO)NC(=O)[C@@H](NC(=O)[C@H](Cc1ccccc1)NC(=O)[C@@H](NC(=O)CNC(=O)[C@H](CCC(N)=O)NC(=O)[C@@H](N)CO)[C@@H](C)O)[C@@H](C)O)C(C)C)C(=O)N[C@@H](CC(N)=O)C(=O)N[C@H](C(N)=O)[C@@H](C)O`, at Glucagon receptor [1], the outcome was Active.

For the compound `CSCC[C@H](NC(=O)[C@H](CC(C)C)NC(=O)[C@H](Cc1c[nH]c2ccccc12)NC(=O)[C@H](CCC(N)=O)NC(=O)[C@@H](NC(=O)[C@H](Cc1ccccc1)NC(=O)[C@H](CC(=O)O)NC(=O)[C@H](CCC(N)=O)NC(=O)[C@H](C)NC(=O)[C@H](CCCNC(=N)N)NC(=O)[C@H](CCCNC(=N)N)NC(=O)[C@H](CO)NC(=O)[C@H](CC(=O)O)NC(=O)[C@H](CC(C)C)NC(=O)[C@H](Cc1ccc(O)cc1)NC(=O)[C@H](CCCCN)NC(=O)[C@H](CO)NC(=O)[C@H](Cc1ccc(O)cc1)NC(=O)[C@H](CSCCC(=O)O)NC(=O)[C@H](CO)NC(=O)[C@@H](NC(=O)[C@H](Cc1ccccc1)NC(=O)[C@@H](NC(=O)CNC(=O)[C@H](CCC(N)=O)NC(=O)[C@@H](N)CO)[C@@H](C)O)[C@@H](C)O)C(C)C)C(=O)N[C@@H](CC(N)=O)C(=O)N[C@H](C(N)=O)[C@@H](C)O`, the outcome at Glucagon receptor [1] was Active.

By IC50 is commonly meant the concentration that gives 50% inhibition. As for `CSCC[C@H](NC(=O)[C@H](CC(C)C)NC(=O)[C@H](Cc1c[nH]c2ccccc12)NC(=O)[C@H](CCC(N)=O)NC(=O)[C@@H](NC(=O)[C@H](Cc1ccccc1)NC(=O)[C@H](CC(=O)O)NC(=O)[C@H](CCC(N)=O)NC(=O)[C@H](C)NC(=O)[C@H](CCCNC(=N)N)NC(=O)[C@H](CCCNC(=N)N)NC(=O)[C@H](CO)NC(=O)[C@H](CC(=O)O)NC(=O)[C@H](CC(C)C)NC(=O)[C@H](Cc1ccc(O)cc1)NC(=O)[C@H](CCCCN)NC(=O)[C@H](CO)NC(=O)[C@H](Cc1ccc(O)cc1)NC(=O)[C@H](CSCCC(=O)O)NC(=O)[C@H](CO)NC(=O)[C@@H](NC(=O)[C@@H](N)Cc1ccccc1)[C@@H](C)O)C(C)C)C(=O)N[C@@H](CC(N)=O)C(=O)N[C@H](C(N)=O)[C@@H](C)O` (H-FTSC(CH2CH2COOH)YSKYLDSRRAQDFVQWLMNT-NH2), the IC50 at Glucagon receptor [2] is 81.8 nM.

Turning to `CSCC[C@H](NC(=O)[C@H](CC(C)C)NC(=O)[C@H](Cc1c[nH]c2ccccc12)NC(=O)[C@H](CCC(N)=O)NC(=O)[C@@H](NC(=O)[C@H](Cc1ccccc1)NC(=O)[C@H](CC(=O)O)NC(=O)[C@H](CCC(N)=O)NC(=O)[C@H](C)NC(=O)[C@H](CCCNC(=N)N)NC(=O)[C@H](CCCNC(=N)N)NC(=O)[C@H](CO)NC(=O)[C@H](CC(=O)O)NC(=O)[C@H](CC(C)C)NC(=O)[C@H](Cc1ccc(O)cc1)NC(=O)[C@H](CCCCN)NC(=O)[C@H](CO)NC(=O)[C@H](Cc1ccc(O)cc1)NC(=O)[C@H](CSCC(=O)O)NC(=O)[C@H](CO)NC(=O)[C@@H](NC(=O)[C@@H](N)Cc1ccccc1)[C@@H](C)O)C(C)C)C(=O)N[C@@H](CC(N)=O)C(=O)N[C@H](C(N)=O)[C@@H](C)O` (H-FTSC(Carboxymethyl)YSKYLDSRRAQDFVQWLMNT-NH2), the IC50 at Glucagon receptor [2] worked out at 71.4 nM.

On to `CSCC[C@H](NC(=O)[C@H](CC(C)C)NC(=O)[C@H](Cc1c[nH]c2ccccc12)NC(=O)[C@H](CCC(N)=O)NC(=O)[C@@H](NC(=O)[C@H](Cc1ccccc1)NC(=O)[C@H](CC(=O)O)NC(=O)[C@H](CCC(N)=O)NC(=O)[C@H](C)NC(=O)[C@H](CCCNC(=N)N)NC(=O)[C@H](CCCNC(=N)N)NC(=O)[C@H](CO)NC(=O)[C@H](CC(=O)O)NC(=O)[C@H](CC(C)C)NC(=O)[C@H](Cc1ccc(O)cc1)NC(=O)[C@H](CCCCN)NC(=O)[C@H](CO)NC(=O)[C@H](Cc1ccc(O)cc1)NC(=O)[C@H](CCC(=O)O)NC(=O)[C@H](CO)NC(=O)[C@@H](NC(=O)C(C)Cc1ccccc1)[C@@H](C)O)C(C)C)C(=O)N[C@@H](CC(N)=O)C(=O)N[C@H](C(N)=O)[C@@H](C)O` (stereo not given in full) (HELM PEPTIDE1{[CC(Cc1ccccc1)C(=O)[*:2]].T.S.E.Y.S.K.Y.L.D.S.R.R.A.Q.D.F.V.Q.W.L.M.N.T.[am]}$$$$V2.0), for which the IC50 on Glucagon receptor [3] was 114 nM; on Glucagon receptor [2] it was 47.7 nM.

Consider `CSCC[C@H](NC(=O)[C@H](CC(C)C)NC(=O)[C@H](Cc1c[nH]c2ccccc12)NC(=O)[C@H](CCC(N)=O)NC(=O)[C@@H](NC(=O)[C@H](Cc1ccccc1)NC(=O)[C@H](CC(=O)O)NC(=O)[C@H](CCC(N)=O)NC(=O)[C@H](C)NC(=O)[C@H](CCCNC(=N)N)NC(=O)[C@H](CCCNC(=N)N)NC(=O)[C@H](CO)NC(=O)[C@H](CC(=O)O)NC(=O)[C@H](CC(C)C)NC(=O)[C@H](Cc1ccc(O)cc1)NC(=O)[C@H](CCCCN)NC(=O)[C@H](CO)NC(=O)[C@H](Cc1ccc(O)cc1)NC(=O)[C@H](CCC(=O)O)NC(=O)[C@H](CO)NC(=O)[C@@H](NC(=O)[C@@H](N)Cc1ccc2ccccc2c1)[C@@H](C)O)C(C)C)C(=O)N[C@@H](CC(N)=O)C(=O)N[C@H](C(N)=O)[C@@H](C)O` (HELM PEPTIDE1{[N[C@@H](Cc1ccc2ccccc2c1)C(=O)[*:2]].T.S.E.Y.S.K.Y.L.D.S.R.R.A.Q.D.F.V.Q.W.L.M.N.T.[am]}$$$$V2.0), for which the IC50 at Glucagon receptor [3] was 95.2 nM; on Glucagon receptor [2] it was 44.1 nM.

Regarding `CSCC[C@H](NC(=O)[C@H](CC(C)C)NC(=O)[C@H](Cc1c[nH]c2ccccc12)NC(=O)[C@H](CCC(N)=O)NC(=O)[C@@H](NC(=O)[C@H](Cc1ccccc1)NC(=O)[C@H](CC(=O)O)NC(=O)[C@H](CCC(N)=O)NC(=O)[C@H](C)NC(=O)[C@H](CCCNC(=N)N)NC(=O)[C@H](CCCNC(=N)N)NC(=O)[C@H](CO)NC(=O)[C@H](CC(=O)O)NC(=O)[C@H](CC(C)C)NC(=O)[C@H](Cc1ccc(O)cc1)NC(=O)[C@H](CCCCN)NC(=O)[C@H](CO)NC(=O)[C@H](Cc1ccc(O)cc1)NC(=O)[C@H](CCC(=O)O)NC(=O)[C@H](CO)NC(=O)[C@@H](NC(=O)[C@@H](N)Cc1ccc(F)c(F)c1)[C@@H](C)O)C(C)C)C(=O)N[C@@H](CC(N)=O)C(=O)N[C@H](C(N)=O)[C@@H](C)O` (HELM PEPTIDE1{[N[C@@H](Cc1ccc(F)c(F)c1)C(=O)[*:2]].T.S.E.Y.S.K.Y.L.D.S.R.R.A.Q.D.F.V.Q.W.L.M.N.T.[am]}$$$$V2.0), the IC50 was 36.7 nM at Glucagon receptor [3] and 192 nM at Glucagon receptor [2].

On to H-GTFTSEYSKYLDSRRAQDFVQWLMNT-NH2, for which the IC50 at Glucagon receptor [2] worked out at 275 nM.

These data come from ChEMBL document CHEMBL4808176, “Optimization of Truncated Glucagon Peptides to Achieve Selective, High Potency, Full Antagonists” (J Med Chem, 2021).
